Here are results for 5 compounds from ChEMBL document CHEMBL1781913, “Design and synthesis of 3-alkyl-2-aryl-1,3-thiazinan-4-one derivatives as selective cyclooxygenase (COX-2) inhibitors” (Bioorg Med Chem Lett, 2009).

The target in this experiment is T1, Prostaglandin G/H synthase 1 (Ovis aries, UniProt P05979).
T1 sequence (P05979 whole entry): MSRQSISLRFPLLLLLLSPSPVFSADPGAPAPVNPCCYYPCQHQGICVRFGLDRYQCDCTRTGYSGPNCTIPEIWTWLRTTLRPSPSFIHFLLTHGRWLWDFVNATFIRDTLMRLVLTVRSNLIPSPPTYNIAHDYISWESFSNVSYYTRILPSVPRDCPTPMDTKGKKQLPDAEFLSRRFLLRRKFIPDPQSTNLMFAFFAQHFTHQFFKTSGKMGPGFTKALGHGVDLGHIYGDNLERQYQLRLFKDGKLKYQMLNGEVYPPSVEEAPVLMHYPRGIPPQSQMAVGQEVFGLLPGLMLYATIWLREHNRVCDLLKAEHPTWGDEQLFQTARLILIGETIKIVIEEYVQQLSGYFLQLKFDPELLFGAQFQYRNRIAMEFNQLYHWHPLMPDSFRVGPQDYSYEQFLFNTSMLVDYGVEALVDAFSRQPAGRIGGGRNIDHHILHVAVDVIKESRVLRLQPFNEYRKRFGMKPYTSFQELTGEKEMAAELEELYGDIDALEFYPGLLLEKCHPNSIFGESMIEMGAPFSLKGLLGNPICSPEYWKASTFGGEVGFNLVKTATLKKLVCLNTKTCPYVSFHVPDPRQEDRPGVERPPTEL
The experiment can be described thus: Inhibition of ovine COX1 by chemiluminescent assay.

Usually IC50 stands for the midpoint of a concentration-inhibition curve. A lower IC50 goes with higher potency. `CS(=O)(=O)c1ccc(C2SCCC(=O)N2Cc2ccccc2)cc1` (stereo not given) displayed an IC50 of 17.2 µM.

The compound `CS(=O)(=O)c1ccc(C2SCCC(=O)N2CCc2ccccc2)cc1` (stereo not given) gave a 50% inhibitory concentration (IC50) of 16 µM.

In turn, `CCCN1C(=O)CCSC1c1ccc(S(C)(=O)=O)cc1` (stereo not given) displayed an IC50 of 14.1 µM.

Turning to `CCCCN1C(=O)CCSC1c1ccc(S(C)(=O)=O)cc1` (stereo not given), half-maximal inhibition (IC50) required 14.8 µM.

As for `CCCCCN1C(=O)CCSC1c1ccc(S(C)(=O)=O)cc1` (stereo not given), the IC50 stood at 14.9 µM.
